Results from a compilation of properties of binary mixtures (doi:10.1016/j.molliq.2016.04.040).

Assay: xn = mol fraction of the nth substance listed
Settings: 100 kPa

CC(=O)[O-].CCC[NH3+] + CN1CCCC1=O
speed of sound [m/s]
Settings | 293.15 K | 298.15 K | 303.15 K | 308.15 K | 313.15 K | 318.15 K | 323.15 K | 328.15 K | 333.15 K
x2 = 0 | 1504.2 | 1490.7 | – | 1461.9 | 1447.5 | – | – | 1405.6 | –
x2 = 0.05 | 1506.6 | 1493.5 | – | 1464 | – | 1434.5 | 1420.4 | 1406.6 | 1392.6
x2 = 0.0978 | 1509.6 | 1495.7 | 1481.1 | 1466.8 | 1451.7 | 1436.1 | 1421.4 | 1407.6 | 1393.3
x2 = 0.1978 | 1515 | 1501 | 1485.6 | 1471.1 | – | 1439.8 | 1424.3 | 1410 | 1395.1
x2 = 0.3095 | 1522.4 | 1506.4 | 1491.6 | 1474.8 | 1459.3 | – | – | 1413.1 | 1397.7
x2 = 0.3891 | 1527.5 | 1511.4 | 1495.3 | 1479 | 1462.8 | 1446.7 | – | – | 1399.2
x2 = 0.4931 | 1533.3 | 1517 | 1500.3 | 1484.2 | 1467.1 | 1451.1 | 1433.2 | 1417.5 | 1401.1
x2 = 0.599 | 1539.9 | 1521.9 | – | 1488.3 | 1471.5 | 1453.8 | 1436.8 | 1420.2 | –
x2 = 0.7001 | 1545.8 | 1527.3 | – | 1492 | 1474.8 | – | 1439.8 | 1422.2 | 1405.1
x2 = 0.7998 | – | 1533.1 | 1515.2 | 1497.2 | – | 1461.4 | – | – | 1407.8
x2 = 0.891 | – | 1538.6 | 1519.6 | 1501.1 | 1482.7 | 1463.9 | 1445.1 | 1427.5 | 1409

CCC[NH3+].O=C[O-] + CN1CCCC1=O
speed of sound [m/s]
Settings | 293.15 K | 298.15 K | 303.15 K | 308.15 K | 313.15 K | 318.15 K | 323.15 K | 328.15 K | 333.15 K
x2 = 0 | – | 1540.7 | – | 1519.8 | 1509.5 | 1499.2 | 1489.1 | 1479 | 1469
x2 = 0.0494 | 1556.8 | 1546 | 1535.1 | – | 1513.7 | 1503.1 | – | 1482 | 1471.6
x2 = 0.1047 | 1557.7 | 1546.3 | 1534.9 | 1523.6 | – | 1501.3 | 1490.2 | 1479.3 | 1468.4
x2 = 0.1953 | 1559.5 | 1547.5 | 1535.4 | 1523.3 | 1511.4 | 1499.5 | 1487.7 | 1475.9 | 1464.2
x2 = 0.3021 | – | 1547.4 | 1534.2 | – | 1508.1 | 1495.2 | 1482.3 | 1469.4 | 1456.6
x2 = 0.4205 | 1563.9 | – | – | 1520.9 | 1506.7 | 1492.6 | 1478.5 | 1464.5 | 1450.5
x2 = 0.5063 | 1566 | 1550.9 | 1535.7 | 1520.7 | 1505.7 | – | 1475.9 | 1461.1 | 1446.3
x2 = 0.6001 | 1565.4 | 1549.7 | 1533.7 | 1517.8 | 1501.9 | 1486.2 | – | – | 1439.1
x2 = 0.7075 | 1565 | 1548.1 | 1531.2 | 1514.3 | 1497.6 | 1480.9 | 1464.2 | 1447.5 | –
x2 = 0.7986 | – | – | 1529.2 | 1511.6 | – | 1476.8 | 1459.5 | 1442.2 | –
x2 = 0.9048 | – | 1545.7 | 1527.6 | – | 1491.4 | 1473.5 | 1455.7 | 1438 | 1420.3

CC(=O)[O-].CCC[NH3+] + O
speed of sound [m/s]
Settings | 293.15 K | 298.15 K | 303.15 K | 308.15 K | 313.15 K | 318.15 K | 323.15 K | 328.15 K | 333.15 K
x2 = 0 | 1504.2 | 1490.7 | 1476.6 | 1461.9 | 1447.5 | 1433.3 | – | 1405.6 | 1391.1
x2 = 0.05 | 1506.6 | 1493.5 | 1478.6 | 1464 | 1449.1 | 1434.5 | 1420.4 | 1406.6 | 1392.6
x2 = 0.0978 | 1509.6 | 1495.7 | – | 1466.8 | 1451.7 | 1436.1 | – | 1407.6 | 1393.3
x2 = 0.1978 | – | – | 1485.6 | – | – | 1439.8 | 1424.3 | – | 1395.1
x2 = 0.3095 | – | 1506.4 | 1491.6 | 1474.8 | 1459.3 | – | 1428 | 1413.1 | 1397.7
x2 = 0.3891 | 1527.5 | 1511.4 | 1495.3 | 1479 | 1462.8 | 1446.7 | 1430.3 | 1414.7 | 1399.2
x2 = 0.4931 | – | 1517 | 1500.3 | – | – | – | 1433.2 | 1417.5 | –
x2 = 0.599 | 1539.9 | 1521.9 | 1505.3 | 1488.3 | 1471.5 | – | 1436.8 | 1420.2 | 1402.8
x2 = 0.7001 | 1545.8 | 1527.3 | 1510 | 1492 | 1474.8 | 1457.5 | 1439.8 | 1422.2 | 1405.1
x2 = 0.7998 | 1552.5 | – | – | 1497.2 | 1478.8 | 1461.4 | – | 1424.9 | 1407.8
x2 = 0.891 | – | 1538.6 | 1519.6 | 1501.1 | 1482.7 | 1463.9 | – | – | 1409

CCC[NH3+].O=C[O-] + O
speed of sound [m/s]
Settings | 293.15 K | 298.15 K | 303.15 K | 308.15 K | 313.15 K | 318.15 K | 323.15 K | 328.15 K | 333.15 K
x2 = 0 | 1552 | 1540.7 | 1530.2 | – | 1509.5 | 1499.2 | 1489.1 | 1479 | 1469
x2 = 0.0505 | 1557.1 | 1546.6 | 1536.1 | 1525.7 | 1515.4 | – | 1495.1 | 1485 | 1474.9
x2 = 0.1036 | 1565.1 | 1554.7 | 1544.2 | 1533.9 | 1523.7 | 1513.5 | 1503.4 | 1493.4 | 1483.2
x2 = 0.2456 | 1588.7 | 1578.5 | 1568.5 | – | 1548.1 | 1538 | 1528 | – | –
x2 = 0.2838 | – | 1585.9 | 1575.7 | 1565.6 | – | 1545.4 | – | 1525.4 | –
x2 = 0.429 | 1615.5 | 1605.7 | – | – | 1575.8 | 1566 | 1556 | 1546.1 | 1536
x2 = 0.5184 | 1632.4 | – | 1612.8 | 1603 | 1593 | 1583.1 | 1573.2 | 1563.3 | –
x2 = 0.6064 | – | – | 1635.4 | 1625.7 | 1616 | 1606.2 | 1596.4 | – | 1576.6
x2 = 0.6994 | 1687.5 | 1678.4 | 1669.2 | 1659.9 | 1650.5 | 1641 | 1631.5 | 1621.8 | 1611.9
x2 = 0.8008 | 1727.2 | 1719.4 | 1711.3 | – | 1694.3 | – | 1676.4 | 1666.8 | 1657.3
x2 = 0.9026 | 1730 | 1725.8 | – | 1716.1 | 1710.7 | 1704.7 | 1698.3 | 1691.5 | 1684.3
